{"source": "patent US8377983B2", "about": "“Benzazole derivatives, compositions, and methods of use as aurora kinase inhibitors” (TransTech Pharma, Inc., priority 2006, dated 2013)", "key": {"[1]": {"system": "HCT-116, BxPC-3, A549, BT-549, LNCaP, MIA Paca-2 tumor cells", "assay": "In vitro cell proliferation (alamarBlue)", "format": "cell-based", "details": "Homo sapiens; 96 hr incubation; read-out: IC50 against at least one of HCT-116, MIA Paca-2, or LNCaP cells", "description": "Compounds are tested for their ability to inhibit cell proliferation and viability. The metabolic reduction of alamarBlue™ (Biosource cat. no. DAL1100) was used to measure cell viability.\nThe anti-proliferative activity of compounds is studied using a panel of tumor cells: HCT-116 (human colorectal carcinoma cell line), BxPC-3 (human pancreatic adenocarcinoma cell line), A549 (human lung carcinoma cell line), BT-549 (human breast carcinoma cell line), LNCaP (human prostate carcinoma cell line), and MIA Paca-2 (human pancreatic carcinoma cell line). These adherent cells (1,000-20,000) are plated in complete media (RPMI-1640, DMEM, F12K, or McCoy's 5A) containing 10% fetal bovine serum (Gibco) in tissue culture treated 96-well plates (Costar) and placed in a humidified incubator at 37° C., […], 5% CO2 for 18-24 hr. Media was removed and replaced with 90 μL fresh media. Compound is diluted in media containing 3% DMSO and added to cells. Background (C^−) relative fluorescent units are determined by incubating alamarBlue™ reagent for 6 hr using untreated cells plated 18 hr earlier. Untreated cells or cells containing compound are incubated for 96 hr. During the last 6 hr of the incubation period, alamarBlue™ reagent (10 μL) was added to each well and incubated in a humidified incubator at 37° C., […], 5% CO2.\nAlamarBlue™ reduction is measured in a fluorescence plate reader with instrument settings for excitation at 530 nm and emission at 590 nm. […] Compound IC50 values are determined from % inhibition versus compound concentration curve plots using GraphPad Prism™ according to the 4 parameter logistic equation Y=Bottom+(Top−Bottom)/1+10^((Log EC50−X)*HillSlope))."}, "[2]": {"system": "human MiaPaCa-2 pancreatic xenografts", "assay": "MiaPaCa-2 xenograft model, Example 88 alone and in combination with erlotinib", "format": "in vivo, athymic mice", "details": "for Median Tumor Size: Example 88 10 mg/kg i.p. b.i.d. 10 days, erlotinib 50 mg/kg p.o. daily 14 days; for complete responders (CR, 100% reduction in tumor size) / partial responders (PR, greater than 50% reduction in tumor size): day 42, out of 8 mice, 10 mg/kg", "description": "(§1) Compounds were dosed on the following schedules:\n2) Erlotinib was dosed 50 mg/kg, p.o., daily for 14 days (days 1-14).\nMice-bearing sc tumors were randomized, and treatment groups consisted of 8 mice."}, "[3]": {"system": "human MiaPaCa-2 pancreatic xenografts", "assay": "MiaPaCa-2 xenograft model, Example 88 alone and in combination with gemcitabine", "format": "in vivo, athymic mice", "details": "for Median Tumor Size: Example 88 10 mg/kg i.p. b.i.d. 10 days, gemcitabine 120 mg/kg i.p. q3d×4", "description": "as §1\n2) Gemcitabine was dosed 120 mg/kg, i.p., q3d×4 (days 1, 4, 7, 10).\nDrug treatment started when mean tumor sizes reached approximately 120 mg (day 8). Mice-bearing sc tumors were randomized, and treatment groups consisted of 8 mice. The median tumor size for each group at various points in the study are listed below in Table B."}, "[4]": {"details": "day 8 of study (treatment start)"}, "[5]": {"details": "day 42, out of 8 mice, Example 88 10 mg/kg, gemcitabine 120 mg/kg"}}}
{"smiles": "O=C(Nc1ccc2cn[nH]c2c1)c1ccc2[nH]c(Nc3ccccc3C(F)(F)F)nc2c1", "note": "[Example 35, 2-(2-Trifluoromethylphenylamino)-3H-benzimidazole-5-carboxylic acid (1H-indazol-6-yl)-amide]", "values": [{"measurement": "IC50", "setting": "[1]", "result": "≤ 3000", "unit": "nM"}]}
{"smiles": "C#Cc1cccc(Nc2ncnc3cc(OCCOC)c(OCCOC)cc23)c1", "note": "[Erlotinib, erlotinib, reference compound]", "values": [{"measurement": "Median Tumor Size", "setting": "[2]; [4]", "result": 120, "unit": "mg"}, {"measurement": "Median Tumor Size", "setting": "[2]; day 10 of study", "result": 144, "unit": "mg"}, {"measurement": "Median Tumor Size", "setting": "[2]; day 13 of study", "result": 192, "unit": "mg"}, {"measurement": "Median Tumor Size", "setting": "[2]; day 16 of study", "result": 267, "unit": "mg"}, {"measurement": "Median Tumor Size", "setting": "[2]; day 20 of study", "result": 363, "unit": "mg"}, {"measurement": "inhibition of tumor growth relative to vehicle-treated tumors", "setting": "[2]; day 23, Example 88 10 mg/kg, erlotinib 50 mg/kg", "result": 16, "unit": "%"}, {"measurement": "Median Tumor Size", "setting": "[2]; day 23 of study", "result": 507, "unit": "mg"}, {"measurement": "Median Tumor Size", "setting": "[2]; day 27 of study", "result": 700, "unit": "mg"}, {"measurement": "Median Tumor Size", "setting": "[2]; day 30 of study", "result": 908, "unit": "mg"}, {"measurement": "Median Tumor Size", "setting": "[2]; day 34 of study", "result": 1224, "unit": "mg"}, {"measurement": "Median Tumor Size", "setting": "[2]; day 37 of study", "result": 1296, "unit": "mg"}, {"measurement": "complete responders (CR, 100% reduction in tumor size)", "setting": "[2]; erlotinib 50 mg/kg", "result": "0/8"}, {"measurement": "partial responders (PR, greater than 50% reduction in tumor size)", "setting": "[2]; erlotinib 50 mg/kg", "result": "0/8"}, {"measurement": "Median Tumor Size", "setting": "[2]; day 42 of study", "result": 1368, "unit": "mg"}]}
{"smiles": "CC(C)c1ccccc1Nc1nc2cc(C(=O)Nc3ccc4cn[nH]c4c3)c(N3CCN(C)CC3)cc2[nH]1", "note": "[Example 48, 2-(2-Isopropylphenylamino)-6-(4-methyl-piperazin-1-yl)-1H-benzimidazole-5-carboxylic acid (1H-indazol-6-yl)-amide]", "values": [{"measurement": "IC50", "setting": "[1]", "result": "≤ 3000", "unit": "nM"}]}
{"smiles": "Cc1cccnc1Nc1nc2cc(C(=O)Nc3ccc4cn[nH]c4c3)c(N3CCOCC3)cc2[nH]1", "note": "[Example 60, 2-(3-Methylpyridin-2-ylamino)-6-morpholin-4-yl-1H-benzimidazole-5-carboxylic acid (1H-indazol-6-yl)-amide]", "values": [{"measurement": "IC50", "setting": "[1]", "result": "≤ 3000", "unit": "nM"}]}
{"smiles": "CN1CCN(c2cc3[nH]c(Nc4ccccc4C(F)(F)F)nc3cc2C(=O)Nc2ccc3cn[nH]c3c2)CC1", "note": "[Example 50, 6-(4-Methylpiperazin-1-yl)-2-(2-trifluoromethyl-phenylamino)-1H-benzimidazole-5-carboxylic acid (1H-indazol-6-yl)-amide]", "values": [{"measurement": "IC50", "setting": "[1]", "result": "≤ 3000", "unit": "nM"}]}
{"smiles": "CCc1cccc(CC)c1Nc1nc2cc(C(=O)Nc3ccc4cn[nH]c4c3)ccc2[nH]1", "note": "[Example 91, 2-(2,6-diethylphenylamino)-3H-benzimidazole-5-carboxylic acid (1H-indazol-6-yl)-amide]", "values": [{"measurement": "complete responders (CR, 100% reduction in tumor size)", "setting": "[2]; erlotinib 50 mg/kg", "result": "0/8"}, {"measurement": "partial responders (PR, greater than 50% reduction in tumor size)", "setting": "[2]; erlotinib 50 mg/kg", "result": "0/8"}]}
{"smiles": "Nc1ccn([C@@H]2O[C@H](CO)[C@@H](O)C2(F)F)c(=O)n1", "note": "[Gemcitabine, reference compound]", "values": [{"measurement": "Median Tumor Size", "setting": "[3]; [4]", "result": 120, "unit": "mg"}, {"measurement": "Median Tumor Size", "setting": "[3]; day 10 of study", "result": 144, "unit": "mg"}, {"measurement": "Median Tumor Size", "setting": "[3]; day 13 of study", "result": 144, "unit": "mg"}, {"measurement": "Median Tumor Size", "setting": "[3]; day 16 of study", "result": 153, "unit": "mg"}, {"measurement": "Median Tumor Size", "setting": "[3]; day 20 of study", "result": 221, "unit": "mg"}, {"measurement": "inhibition of tumor growth relative to vehicle-treated tumors", "setting": "[3]; day 23, Example 88 10 mg/kg, gemcitabine 120 mg/kg", "result": 60, "unit": "%"}, {"measurement": "Median Tumor Size", "setting": "[3]; day 23 of study", "result": 246, "unit": "mg"}, {"measurement": "Median Tumor Size", "setting": "[3]; day 27 of study", "result": 336, "unit": "mg"}, {"measurement": "Median Tumor Size", "setting": "[3]; day 30 of study", "result": 472, "unit": "mg"}, {"measurement": "Median Tumor Size", "setting": "[3]; day 34 of study", "result": 675, "unit": "mg"}, {"measurement": "Median Tumor Size", "setting": "[3]; day 37 of study", "result": 824, "unit": "mg"}, {"measurement": "complete responders (CR, 100% reduction in tumor size)", "setting": "[3]; [5]", "result": "0/8"}, {"measurement": "partial responders (PR, greater than 50% reduction in tumor size)", "setting": "[3]; [5]", "result": "0/8"}, {"measurement": "Median Tumor Size", "setting": "[3]; day 42 of study", "result": 988, "unit": "mg"}]}
{"smiles": "CC(C)c1ccccc1Nc1nc2cc(C(=O)Nc3ccc4cn[nH]c4c3)ccc2[nH]1", "note": "[Example 27, 2-(2-Isopropylphenylamino)-3H-benzimidazole-5-carboxylic acid (1H-indazol-6-yl)-amide]", "values": [{"measurement": "IC50", "setting": "[1]", "result": "≤ 3000", "unit": "nM"}]}
{"smiles": "O=C(Nc1ccc2cn[nH]c2c1)c1cc2nc(Nc3ccccc3C(F)(F)F)[nH]c2cc1N1CCCCC1", "note": "[Example 57, 6-Piperidin-1-yl-2-(2-trifluoromethyl-phenylamino)-1H-benzimidazole-5-carboxylic acid (1H-indazol-6-yl)-amide]", "values": [{"measurement": "IC50", "setting": "[1]", "result": "≤ 3000", "unit": "nM"}]}
